Consider two compounds from ChEMBL document CHEMBL6109164, “Discovery of Novel DDR1 Inhibitors through a Hybrid Virtual Screening Pipeline, Biological Evaluation and Molecular Dynamics Simulations” (ACS Med Chem Lett, 2025).

One assay deals with Z-138. Put plainly: Cytotoxicity against human Z138 cells assessed as reduction in cell viability. In kind it is functional, cell-based.
The target of assay [1] is Epithelial discoidin domain-containing receptor 1 (Homo sapiens) (UniProt Q08345). Put plainly: Binding affinity to DDR1 (unknown origin) at VAL624 residue assessed as occupancy relative to control.
For assay [2] the target is unchanged. Put plainly: Binding affinity to DDR1 (unknown origin) at LYS655 residue assessed as occupancy relative to control.

Molecules are shown by their SMILES. Calls of active or inactive are those of the source. The rule behind the calls is not given here.

Epithelial discoidin domain-containing receptor 1 (Homo sapiens), sequence (Q08345 whole entry, the tested form may be a part): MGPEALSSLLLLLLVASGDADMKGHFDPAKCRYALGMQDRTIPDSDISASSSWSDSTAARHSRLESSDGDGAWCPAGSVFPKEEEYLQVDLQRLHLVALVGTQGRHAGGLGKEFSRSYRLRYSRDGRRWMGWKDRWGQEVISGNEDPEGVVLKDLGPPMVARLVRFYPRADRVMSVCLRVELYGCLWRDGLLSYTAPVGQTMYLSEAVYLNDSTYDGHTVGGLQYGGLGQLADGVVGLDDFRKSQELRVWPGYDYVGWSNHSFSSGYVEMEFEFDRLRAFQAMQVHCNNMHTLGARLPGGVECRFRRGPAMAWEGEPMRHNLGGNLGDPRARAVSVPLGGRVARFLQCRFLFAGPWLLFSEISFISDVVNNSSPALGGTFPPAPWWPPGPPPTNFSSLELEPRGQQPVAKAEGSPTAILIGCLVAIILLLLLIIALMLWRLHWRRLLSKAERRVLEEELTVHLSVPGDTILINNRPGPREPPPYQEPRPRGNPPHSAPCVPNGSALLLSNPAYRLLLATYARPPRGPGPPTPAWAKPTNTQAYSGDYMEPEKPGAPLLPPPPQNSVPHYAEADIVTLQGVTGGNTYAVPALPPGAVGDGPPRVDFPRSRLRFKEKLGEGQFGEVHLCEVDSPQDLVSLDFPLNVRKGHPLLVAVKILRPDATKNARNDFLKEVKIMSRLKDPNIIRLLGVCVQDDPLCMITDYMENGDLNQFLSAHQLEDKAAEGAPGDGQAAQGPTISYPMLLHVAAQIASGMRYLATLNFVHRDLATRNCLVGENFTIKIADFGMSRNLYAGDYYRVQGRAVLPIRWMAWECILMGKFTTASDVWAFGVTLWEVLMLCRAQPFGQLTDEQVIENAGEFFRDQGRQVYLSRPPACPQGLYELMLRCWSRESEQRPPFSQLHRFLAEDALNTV

As for `Cc1cc(Nc2cc(N3CCN(C)CC3)nc(Sc3ccc(NC(=O)C4CC4)cc3)n2)n[nH]1`, the outcome in the assay on Z-138 was Active.

`CN1CCN(c2ccc(C(=O)Nc3n[nH]c4ccc(Cc5cc(F)cc(F)c5)cc34)c(NC3CCOCC3)c2)CC1`: the result in the assay with Z-138 was Active. The Occ in assay [1] amounted to 82.8%; in assay [2] it was 69.9%.
